Measurements as given in PubChem BioAssay AID330 (DTP/NCI, 2004).
Values joined by “and” are separate entries in the source; they are usually repeats but may differ in a detail not shown here. Equal entries are not always repeated. Inconclusive results and toxic doses are left out.

Test system: P388 leukemia ip, CD2F1 mice, survival T/C
Assay: NCI In Vivo Anticancer Drug Screen. Data for tumor model P388 Leukemia (intraperitoneal) in CD2F1 (CDF1) mice
Conditions: endpoint: median survival time, higher = longer survival
In short: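 Mice carrying the transplanted tumor received test compound or vehicle. Survival was recorded in each group, and the value is the treated-group measurement divided by that of the vehicle-treated control group.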

[1] = dose: 50.0 mg/kg/injection, schedule: Q01DX005 (ip), vehicle: saline with Tween-80
[2] = dose: 100.0 mg/kg/injection, schedule: Q01DX005 (ip), vehicle: saline with Tween-80
[3] = dose: 200.0 mg/kg/injection, schedule: Q01DX005 (ip), vehicle: saline with Tween-80
[4] = dose: 25.0 mg/kg/injection, schedule: Q01DX009 (ip), vehicle: saline
[5] = dose: 60.0 mg/kg/injection, schedule: Q01DX005 (ip), vehicle: Klucel (hydroxypropylcellulose) (HPC)
[6] = dose: 120.0 mg/kg/injection, schedule: Q01DX005 (ip), vehicle: Klucel (hydroxypropylcellulose) (HPC)

## CCCCN(CCCC)Cc1c(C)[nH]c2ccc(N(C)C)cc2c1=O
dose: 50.0 mg/kg/injection, schedule: Q01DX009 (ip), vehicle: suspension in saline
  T/C: 108 % of control
dose: 100.0 mg/kg/injection, schedule: Q01DX009 (ip), vehicle: suspension in saline
  T/C: 103 % of control

## O=C(CC1=NC2NN(c3ccccc3)C(=O)C2=C1CC(=O)c1cccc2ccccc12)c1cccc2ccccc12 (stereo not drawn)
[1]
  T/C: 107 % of control
[2]
  T/C: 107 % of control
[3]
  T/C: 107 % of control

## O=C(Nc1cccc2c1CCCC2)c1cc2ccccc2cc1O
[1]
  T/C: 92 % of control
[2]
  T/C: 91 % of control
[3]
  T/C: 91 % of control

## c1ccc(N=c2nc(Nc3ccccc3)ss2)cc1
[1]
  T/C: 94 % of control
[2]
  T/C: 86 % of control
[3]
  T/C: 90 % of control

## N#CC1C(=O)NC(=O)C(C#N)C1c1ccc(Cl)c(Cl)c1 (stereo not drawn)
dose: 50.0 mg/kg/injection, schedule: Q01DX009 (ip), vehicle: Klucel (hydroxypropylcellulose) (HPC)
  T/C: 99 % of control
dose: 100.0 mg/kg/injection, schedule: Q01DX009 (ip), vehicle: Klucel (hydroxypropylcellulose) (HPC)
  T/C: 100 % of control
dose: 200.0 mg/kg/injection, schedule: Q01DX009 (ip), vehicle: Klucel (hydroxypropylcellulose) (HPC)
  T/C: 102 % of control

## CC(=O)OCC(=O)[C@@]1(O)CC[C@H]2[C@@H]3CCC4=CC(=O)C=C[C@]4(C)[C@H]3C(=O)C[C@@]21C
dose: 25.0 mg/kg/injection, schedule: Q04DX003 (ip), vehicle: saline with Tween-80
  T/C: 95 % of control
dose: 50.0 mg/kg/injection, schedule: Q04DX003 (ip), vehicle: saline with Tween-80
  T/C: 104 % of control
dose: 100.0 mg/kg/injection, schedule: Q04DX003 (ip), vehicle: saline with Tween-80
  T/C: 95 % of control

## O=S=C(c1ccccc1)N1CCc2ccccc21
[4]
  T/C: 97 % of control
dose: 50.0 mg/kg/injection, schedule: Q01DX009 (ip), vehicle: saline
  T/C: 97 % of control
dose: 100.0 mg/kg/injection, schedule: Q01DX009 (ip), vehicle: saline
  T/C: 89 % of control

## Cc1n[nH]c(=O)c(N)c1-c1cc(-c2ccccc2)n[nH]1
dose: 60.0 mg/kg/injection, schedule: Q01DX005 (ip), vehicle: saline with Tween-80
  T/C: 91 % of control
dose: 120.0 mg/kg/injection, schedule: Q01DX005 (ip), vehicle: saline with Tween-80
  T/C: 94 % of control
dose: 240.0 mg/kg/injection, schedule: Q01DX005 (ip), vehicle: saline with Tween-80
  T/C: 93 % of control

## O=C1C2=C(Nc3cc([N+](=O)[O-])ccc3N2)OC1c1ccccc1O (stereo not drawn)
dose: 30.0 mg/kg/injection, schedule: Q01DX005 (ip), vehicle: Klucel (hydroxypropylcellulose) (HPC)
  T/C: 106 % of control
[5]
  T/C: 103 % of control and 90 % of control
[6]
  T/C: 101 % of control
dose: 240.0 mg/kg/injection, schedule: Q01DX005 (ip), vehicle: Klucel (hydroxypropylcellulose) (HPC)
  T/C: 90 % of control

## C/[N+]([O-])=N\Nc1ccccc1SCCSc1ccccc1N/N=[N+](\C)[O-]
[5]
  T/C: 91 % of control
[6]
  T/C: 89 % of control

## CC[CH2][Sn]([Cl])([Cl])[CH2]CC.Oc1ccccc1C=NCCN=Cc1ccccc1O
dose: 0.6 mg/kg/injection, schedule: Q01DX009 (ip), vehicle: gum acacia
  T/C: 111 % of control
dose: 5.0 mg/kg/injection, schedule: Q01DX009 (ip), vehicle: gum acacia
  T/C: 159 % of control

## O=[Se]([O][Sn]([O][Se](=O)c1ccccc1)([O][Se](=O)c1ccccc1)[O][Se](=O)c1ccccc1)c1ccccc1 (stereo not drawn)
dose: 12.5 mg/kg/injection, schedule: Q01DX009 (ip), vehicle: saline with Tween-80
  T/C: 98 % of control
dose: 25.0 mg/kg/injection, schedule: Q01DX009 (ip), vehicle: saline with Tween-80
  T/C: 103 % of control
dose: 50.0 mg/kg/injection, schedule: Q01DX009 (ip), vehicle: saline with Tween-80
  T/C: 110 % of control and 118 % of control

## CN(C)CCC(=O)C(=Cc1ccco1)C(=O)CCN(C)C
dose: 60.0 mg/kg/injection, schedule: Q01DX005 (ip), vehicle: saline
  T/C: 100 % of control
dose: 120.0 mg/kg/injection, schedule: Q01DX005 (ip), vehicle: saline
  T/C: 104 % of control
dose: 240.0 mg/kg/injection, schedule: Q01DX005 (ip), vehicle: saline
  T/C: 109 % of control

## C#CC[N+]1(C)CCC=C(C(=O)OC)C1 (stereo not drawn)
[4]
  T/C: 97 % of control
